According to patent US10174011B2, “Heterocyclic compounds, process for preparation of the same and use thereof” (SHANGHAI INSTITUTE OF MATERIA MEDICA, CHINESE ACADEMY OF …, priority 2014, dated 2019):
pEC50, pIC50: −log10 of the molar value. Read-outs that look alike come from different tables or passages of the source.

Tests used:
[1] = target: human recombinant D2 receptor (Homo sapiens (Human), UniProt P14416); assay: D2 receptor antagonism activity test (inhibition of dopamine-induced decrease of cAMP production, LANCE cAMP 384 Kit); details: read-out: D2 receptor antagonism (IC50, mol/L), HEK293 cells expressing human recombinant D2 receptor, 0.1 nM-10000 nM
human recombinant D2 receptor, sequence (P14416 whole entry): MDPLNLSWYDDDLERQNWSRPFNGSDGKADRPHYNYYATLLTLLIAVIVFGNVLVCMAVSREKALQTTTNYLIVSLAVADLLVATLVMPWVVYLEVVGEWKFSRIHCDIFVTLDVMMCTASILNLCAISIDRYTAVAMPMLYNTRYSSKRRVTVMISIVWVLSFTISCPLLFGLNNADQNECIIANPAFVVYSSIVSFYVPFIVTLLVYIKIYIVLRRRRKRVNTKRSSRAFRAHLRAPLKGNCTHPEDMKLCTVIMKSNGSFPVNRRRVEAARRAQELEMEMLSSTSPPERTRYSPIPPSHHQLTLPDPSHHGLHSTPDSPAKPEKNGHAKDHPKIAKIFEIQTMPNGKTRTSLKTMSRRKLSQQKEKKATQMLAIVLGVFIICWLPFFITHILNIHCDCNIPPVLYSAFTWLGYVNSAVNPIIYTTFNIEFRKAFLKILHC

[2] = system: PCP-induced hyperactivity in mice; assay: In vivo efficacy test (PCP-induced high locomotor activity in mice); details: male ICR mice, oral administration 45 minutes before PCP 7 mg/kg i.p.; dose significantly reducing PCP-induced hyperactivity vs model group
Method: 5) In Vivo Efficacy Test (PCP-Induced High Locomotor Activity in Mice)
PCP solution was prepared in a suitable concentration for 7 mg/kg dosage with saline. […] Male ICR mice (18-22 g) were used as test animals. All the test mice were randomly divided into vehicle control group, model control group, positive control group, and treatment group(8 mice per group). Mice of each group were orally administered test compounds or vehicle. After 45 minutes PCP solution was administered (7 mg/kg) through intraperitoneal injection. The mice track after drug or saline administration was recorded and analyzed by the spontaneous, open-field video analysis system. […] The mice track was recorded and analyzed by the spontaneous, open-field video analysis system. The total distance in each group was calculate and expressed as mean+SD and statistical evaluation was performed by one way ANOVA.

[3] = target: human recombinant 5-HT1A receptor (Homo sapiens (Human), UniProt P08908); assay: 5-HT1A receptor agonism activity test (inhibition of cAMP production, LANCE cAMP 384 Kit); format: cell-based; details: HEK293 cells expressing human recombinant 5-HT1A receptor; test concentration 0.1 nM-10000 nM; read-out: 5-HT1A receptor agonism (EC50, mol/L)
human recombinant 5-HT1A receptor, sequence (P08908 whole entry): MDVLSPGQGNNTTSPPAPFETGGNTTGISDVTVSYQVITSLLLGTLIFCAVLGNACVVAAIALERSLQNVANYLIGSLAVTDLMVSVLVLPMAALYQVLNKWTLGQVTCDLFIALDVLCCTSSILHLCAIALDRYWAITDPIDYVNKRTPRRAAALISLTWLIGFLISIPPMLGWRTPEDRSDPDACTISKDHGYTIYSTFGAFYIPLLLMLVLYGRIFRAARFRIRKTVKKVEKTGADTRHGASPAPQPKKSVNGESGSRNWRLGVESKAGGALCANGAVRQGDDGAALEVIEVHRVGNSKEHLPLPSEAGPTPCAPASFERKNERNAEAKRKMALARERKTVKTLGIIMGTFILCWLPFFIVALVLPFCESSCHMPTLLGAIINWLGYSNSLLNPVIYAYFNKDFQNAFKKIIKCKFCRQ
Source text: Pharmacological Test 1) 5-HT1A Receptor Agonism Activity Test

[4] = target: human recombinant 5-HT2A receptor (Homo sapiens (Human), UniProt P28223); assay: 5-HT2A receptor antagonism activity test (FLIPR Calcium 5 Assay Kit); details: read-out: 5-HT2A receptor antagonism (IC50, mol/L)
human recombinant 5-HT2A receptor, sequence (P28223 whole entry): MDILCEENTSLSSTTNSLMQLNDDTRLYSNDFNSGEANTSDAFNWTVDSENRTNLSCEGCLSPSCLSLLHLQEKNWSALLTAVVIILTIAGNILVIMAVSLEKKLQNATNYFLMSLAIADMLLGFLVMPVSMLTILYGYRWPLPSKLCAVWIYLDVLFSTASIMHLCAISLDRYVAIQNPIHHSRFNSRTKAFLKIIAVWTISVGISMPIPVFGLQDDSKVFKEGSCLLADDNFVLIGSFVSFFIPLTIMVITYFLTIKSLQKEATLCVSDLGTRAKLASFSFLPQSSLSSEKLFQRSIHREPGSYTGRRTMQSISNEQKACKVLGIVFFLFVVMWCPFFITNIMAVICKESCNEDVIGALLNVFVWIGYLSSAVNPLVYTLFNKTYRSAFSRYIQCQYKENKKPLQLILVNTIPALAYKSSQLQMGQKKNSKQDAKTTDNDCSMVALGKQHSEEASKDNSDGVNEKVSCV

[5] = CHO-K1 cells expressing human recombinant 5-HT2A receptor, α-methyl-5-hydroxytryptamine 300 nM, 0.1 nM-10000 nM

| Compound | pIC50 [1] | Effective dose [2] | pEC50 [3] | pIC50 [4, 5] | pIC50 [4] |
| --- | --- | --- | --- | --- | --- |
| O=c1[nH]c2ccc(CCN3CCN(c4cccc5sc(F)cc45)CC3)cc2[nH]1 [Compound of example 77, 5-(2-(4-(2-fluorobenzo[b]thiophen-4-yl)piperazin-1-yl)ethyl)-1H-benzo[d]imidazol-2(3H)-one] | 8.16 | 3 mg/kg | 8.32 | 6.80 |  |
| Cl.O=C1CCc2ccc(CCN3CCN(c4cccc5sc(F)cc45)CC3)cc2N1 [Compound of example 64, 7-(2-(4-(2-fluorobenzo[b]thiophen-4-yl)piperazin-1-yl)ethyl)-3,4-dihydroquinolin-2(1H)-onehydrochloride] | 8.53 | 1 mg/kg | 7.50 | 6.59 |  |
| Cn1c(=O)[nH]c2cc(CCN3CCN(c4cccc5sccc45)CC3)ccc21 [Compound of example 88, 5-(2-(4-(benzo[b]thiophen-4-yl)piperazin-1-yl)ethyl)-1-methyl-1H-benzo[d]imidazol-2(3H)-one] | 6.67 | 1 mg/kg | 8.20 | 6.45 |  |
| O=C1CCc2ccc(CCN3CCN(c4cc(F)cc5sccc45)CC3)cc2N1 [Compound of example 85, 7-(2-(4-(6-fluorobenzo[b]thiophen-4-yl)piperazin-1-yl)ethyl)-3,4-dihydroquinolin-2(1H)-one] | 8.27 | 1 mg/kg | 8.86 |  | 7.11 |
| O=C1Cc2cc(CCN3CCN(c4cccc5sc(F)cc45)CC3)ccc2N1 [Compound of example 79, 5-(2-(4-(2-fluorobenzo[b]thiophen-4-yl)piperazin-1-yl)ethyl)indolin-2-one] | 8.41 | 1 mg/kg | 9.11 |  | 7.77 |
| Cc1nc2ccc(CCN3CCN(c4cccc5sccc45)CC3)cc2c(=O)[nH]1 [Compound of example 80, 6-(2-(4-(benzo[b]thiophen-4-yl)piperazin-1-yl)ethyl)-2-methylquinazolin-4(3H)-one] | 7.60 | 1 mg/kg | 8.76 | 7.92 |  |
| O=C1COc2ccc(CCN3CCN(c4cc(F)cc5sccc45)CC3)cc2N1 [Compound of example 78, 6-(2-(4-(6-fluorobenzo[b]thiophen-4-yl)piperazin-1-yl)ethyl)-2H-benzo[b][1,4]oxazin-3(4H)-one] | 7.34 | 3 mg/kg | 9.22 | 6.48 |  |
| O=c1ccc2ccc(CCN3CCN(c4cc(F)cc5sccc45)CC3)cc2[nH]1 [Compound of example 102, 7-(2-(4-(6-fluorobenzo[b]thiophen-4-yl)piperazin-1-yl)ethyl)quinolin-2(1H)-one] | 6.97 | 3 mg/kg | 8.48 | 5.72 |  |
| O=C1COc2c(F)cc(CCCCN3CCN(c4cccc5sccc45)CC3)cc2N1 [Compound of example 72, 6-(4-(4-(benzo[b]thiophen-4-yl)piperazin-1-yl)butyl)-8-fluoro-2H-benzo[b][1,4]oxazin-3(4H)-one] | 7.88 | 3 mg/kg | 8.60 | 6.02 |  |
| Cl.O=S1(=O)NCCc2ccc(CCN3CCN(c4cccc5sccc45)CC3)cc21 [Compound of example 81, 7-(2-(4-(benzo[b]thiophen-4-yl)piperazin-1-yl)ethyl)-1,1-dioxide-3,4-dihydro-2H-benzo[e][1,2]thiazine hydrochloride] | 7.84 | 1 mg/kg | 8.98 | 8.78 |  |
| O=C1COc2ccc(CCCCN3CCN(c4cccc5sccc45)CC3)cc2N1 [Compound of example 137, 6-(4-(4-(benzo[b]thiophen-4-yl)piperazin-1-yl)butyl)-2H-benzo[b][1,4]oxazin-3(4H)-one] | 7.52 | 3 mg/kg | 8.74 | 6.15 |  |
| O=c1ccc2ccc(CCCCN3CCN(c4cccc5sccc45)CC3)cc2[nH]1 [Compound of example 33, 7-(4-(4-(benzo[b]thiophen-4-yl)piperazin-1-yl)butyl)quinolin-2(1H)-one] | 7.45 | 1 mg/kg | 8.65 | 6.61 |  |
| O=C1Cc2cc(CCCCN3CCN(c4cccc5sccc45)CC3)ccc2N1 [Compound of example 112, 5-(4-(4-(benzo[b]thiophen-4-yl)piperazin-1-yl)butyl)indolin-2-one] | 7.55 | 1 mg/kg | 7.46 | 6.59 |  |
| O=C1CCc2cc(CCN3CCN(c4cccc5sc(F)cc45)CC3)ccc2N1 [Compound of example 65, 6-(2-(4-(2-fluorobenzo[b]thiophen-4-yl)piperazin-1-yl)ethyl)-3,4-dihydroquinolin-2(1H)-one] | 8.11 | 3 mg/kg | 8.90 | 7.39 |  |
| O=C1Cc2cc(CCN3CCC(c4cccc5sccc45)CC3)ccc2N1 [Compound of example 82, 5-(2-(4-(benzo[b]thiophen-4-yl)piperidin-1-yl)ethyl)indolin-2-one] | 7.96 | 1 mg/kg | 8.55 | 7.94 |  |
| O=C1CCc2ccc(CCN3CCC(c4cccc5sccc45)CC3)cc2N1 [Compound of example 83, 7-(2-(4-(benzo[b]thiophen-4-yl)piperidin-1-yl)ethyl)-3,4-dihydroquinolin-2(1H)-one] | 7.98 | 1 mg/kg | 8.31 |  | 7.60 |
